In patent US20160185774A1, “Anti-Infective Compounds” (priority 2013, published 2016) one finds MIC80 data, which are given here for 68 compounds.

Values after ≈ are worked out from the molar mass of the structure shown.

The test relates to M. tuberculosis. Put plainly: microbe, parasite or virus in culture. Conditions: Mycobacterium tuberculosis, 120 h; read-out: QUM (MIC80). Type of test: cell-based.
Turning to `CCc1nc2ccc(C)cn2c1C(=O)NCc1ccc(N2CCC(c3ccc(Cl)cc3)CC2)cc1` [Compound 122], the MIC80 is less than 1 µM.
The figure for `CCc1nc2ccc(OC)cn2c1C(=O)NCc1ccc(N2CCC(c3ccc(OC)cc3)CC2)cc1` [Compound 123] is less than 1 µM; for `CCc1nc2cc(C(F)(F)F)ccn2c1C(=O)NCc1ccc(N2CCC(c3ccc(OC)cc3)CC2)cc1` [Compound 124] it is less than 1 µM; for `CCc1nc2c(OC)cccn2c1C(=O)NCc1ccc(N2CCC(c3ccc(C(F)(F)F)cc3)CC2)cc1` [Compound 125] it is 1 to 20 µM (≈ 0.537 to 10.7 µg/mL).
In the case of `CCc1nc2ccc(OC)cn2c1C(=O)NCc1ccc(N2CCC(c3ccc(C(F)(F)F)cc3)CC2)cc1` [Compound 126] it was less than 1 µM.
Turning to `CCc1nc2ccc(OC)cn2c1C(=O)NCc1ccc(N2CCC(c3ccc(C)cc3)CC2)cc1` [Compound 127], the MIC80 is less than 1 µM.
As for `CCc1nc2ccc(OC)cn2c1C(=O)NCc1ccc(N2CCN(c3ccc(Cl)cc3)CC2)cc1` [Compound 128], the MIC80 was less than 1 µM.
Take `CCc1nc2c(OC)cccn2c1C(=O)NCc1ccc(N2CCN(c3ccc(C(F)(F)F)cc3)CC2)cc1` [Compound 129]: the MIC80 lay in the range of 1 to 20 µM (≈ 0.538 to 10.8 µg/mL).
The figure for `CCc1nc2ccc(C(F)(F)F)cn2c1C(=O)NCc1ccc(N2CCN(c3ccc(C(F)(F)F)cc3)CC2)cc1` [Compound 130] is less than 1 µM; for `CCc1nc2cc(Br)ccn2c1C(=O)NCc1ccc(N2CCC(c3ccc(C(F)(F)F)cc3)CC2)cc1` [Compound 132] it is less than 1 µM; for `CCc1nc2cc(Br)ccn2c1C(=O)NCc1ccc(N2CCC(c3ccc(F)cc3)CC2)cc1` [Compound 133] it is less than 1 µM.
In the case of `CCc1nc2cc(Br)ccn2c1C(=O)NCc1ccc(N2CCC(c3ccc(Cl)cc3)CC2)cc1` [Compound 134] it was less than 1 µM.
`CCc1nc2cc(Br)ccn2c1C(=O)NCc1ccc(N2CCN(c3ccc(Cl)cc3)CC2)cc1` [Compound 135]: the MIC80 was less than 1 µM.
For the compound `CCc1nc2ccc(Br)cn2c1C(=O)NCc1ccc(N2CCC(c3ccc(C(F)(F)F)cc3)CC2)cc1` [Compound 136], the MIC80 was less than 1 µM.
In the case of `CCc1nc2cc(F)ccn2c1C(=O)NCc1ccc(N2CCC(c3ccc(F)cc3)CC2)cc1` [Compound 137], the MIC80 is less than 1 µM.
As for `CCc1nc2ccccn2c1C(=O)NCc1ccc(N2CCC(c3ccc(Cl)cc3)CC2)cc1` [Compound 139], the MIC80 was less than 1 µM.
`CCc1nc2ccc(C)cn2c1C(=O)NCc1ccc(N2CCC(c3ccc(C(F)(F)F)cc3)CC2)cc1` [Compound 140]: the MIC80 was less than 1 µM.
The figure for `CCc1nc2cc(C)ccn2c1C(=O)NCc1ccc(N2CCN(c3ccc(C)cc3)CC2)cc1` [Compound 141] is less than 1 µM.
The figure for `CCc1nc2c(Br)cccn2c1C(=O)NCc1ccc(N2CCC(c3ccc(C(F)(F)F)cc3)CC2)cc1` [Compound 143] is 1 to 20 µM (≈ 0.585 to 11.7 µg/mL); for `CCc1nc2c(C)cccn2c1C(=O)NCc1ccc(N2CCC(c3ccc(C)cc3)CC2)cc1` [Compound 144] it is less than 1 µM; for `CCc1nc2c(C)cccn2c1C(=O)NCc1ccc(N2CCC(c3ccc(C(F)(F)F)cc3)CC2)cc1` [Compound 145] it is less than 1 µM.
Turning to `CCc1nc2ccc(C(F)(F)F)cn2c1C(=O)NCc1ccc(N2CCC(c3ccc(C(F)(F)F)cc3)CC2)cc1` [Compound 146], the MIC80 was less than 1 µM.
The figure for `CCc1nc2c(Cl)cccn2c1C(=O)NCc1ccc(N2CCC(c3ccc(C)cc3)CC2)cc1` [Compound 147] is less than 1 µM; for `CCc1nc2c(F)cccn2c1C(=O)NCc1ccc(N2CCC(c3ccc(F)cc3)CC2)cc1` [Compound 148] it is less than 1 µM; for `CCc1nc2ccc(F)cn2c1C(=O)NCc1ccc(N2CCN(c3ccc(OC)cc3)CC2)cc1` [Compound 149] it is less than 1 µM.
`CCc1nc2ccc(F)cn2c1C(=O)NCc1ccc(N2CCC(c3ccc(OC)cc3)CC2)cc1` [Compound 150]: the MIC80 is less than 1 µM.
With `CCc1nc2c(OC)cccn2c1C(=O)NCc1ccc(N2CCC(c3ccc(F)cc3)CC2)cc1` [Compound 151], the MIC80 fell in the range of 1 to 20 µM (≈ 0.487 to 9.73 µg/mL).
The figure for `CCc1nc2c(OC)cccn2c1C(=O)NCc1ccc(N2CCC(c3ccc(OC)cc3)CC2)cc1` [Compound 152] is 1 to 20 µM (≈ 0.499 to 9.97 µg/mL); for `CCc1nc2c(C(F)(F)F)cccn2c1C(=O)NCc1ccc(N2CCC(c3ccc(OC(F)(F)F)cc3)CC2)cc1` [Compound 154] it is 1 to 20 µM (≈ 0.591 to 11.8 µg/mL); for `CCc1nc2cc(C)ccn2c1C(=O)NCc1ccc(N2CCC(c3ccc(OC)cc3)CC2)cc1` [Compound 155] it is less than 1 µM.
Take `CCc1nc2ccc(Br)cn2c1C(=O)NCc1ccc(N2CCN(c3ccc(C(F)(F)F)cc3)CC2)cc1` [Compound 156]: the MIC80 was less than 1 µM.
Turning to `CCc1nc2ccccn2c1C(=O)NCc1ccc(N2CCC(c3ccc(C)cc3)CC2)cc1` [Compound 157], the MIC80 is less than 1 µM.
In the case of `CCc1nc2ccc(Cl)cn2c1C(=O)NCc1ccc(N2CCC(c3ccc(C(F)(F)F)cc3)CC2)cc1` [Compound 158] it was less than 1 µM; in that of `CCc1nc2ccc(Br)cn2c1C(=O)NCc1ccc(N2CCC(c3ccc(Cl)cc3)CC2)cc1` [Compound 159], less than 1 µM; in that of `CCc1nc2c(Cl)cccn2c1C(=O)NCc1ccc(N2CCN(c3ccc(C)cc3)CC2)cc1` [Compound 160], less than 1 µM.
Consider `CCc1nc2c(F)cccn2c1C(=O)NCc1ccc(N2CCN(c3ccc(C(F)(F)F)cc3)CC2)cc1` [Compound 161], for which the MIC80 is less than 1 µM.
The figure for `CCc1nc2ccc(F)cn2c1C(=O)NCc1ccc(N2CCC(c3ccc(Cl)cc3)CC2)cc1` [Compound 162] is less than 1 µM; for `CCc1nc2cc(C)ccn2c1C(=O)NCc1ccc(N2CCC(c3ccc(F)cc3)CC2)cc1` [Compound 163] it is less than 1 µM; for `CCc1nc2cc(F)ccn2c1C(=O)NCc1ccc(N2CCC(c3ccc(C(F)(F)F)cc3)CC2)cc1` [Compound 164] it is less than 1 µM.
In the case of `CCc1nc2ccc(F)cn2c1C(=O)NCc1ccc(N2CCC(c3ccccc3)CC2)cc1` [Compound 165] it was less than 1 µM; in that of `CCc1nc2cc(F)ccn2c1C(=O)NCc1ccc(N2CCC(c3ccccc3)CC2)cc1` [Compound 166], less than 1 µM; in that of `CCc1nc2c(F)cccn2c1C(=O)NCc1ccc(N2CCC(c3ccccc3)CC2)cc1` [Compound 167], less than 1 µM.
For the compound `CCc1nc2c(Br)cccn2c1C(=O)NCc1ccc(N2CCC(c3ccccc3)CC2)cc1` [Compound 168], the MIC80 fell in the range of 1 to 20 µM (≈ 0.517 to 10.3 µg/mL).
In the case of `CCc1nc2ccc(C(F)(F)F)cn2c1C(=O)NCc1ccc(N2CCC(c3ccc(C)cc3)CC2)cc1` [Compound 169] it was less than 1 µM; in that of `CCc1nc2ccccn2c1C(=O)NCc1ccc(N2CCC(c3ccccc3)CC2)cc1` [Compound 170], less than 1 µM.
In the case of `CCc1nc2ccc(OC)cn2c1C(=O)NCc1ccc(N2CCC(c3ccc(Cl)cc3)CC2)cc1` [Compound 172] it was less than 1 µM; in that of `CCc1nc2c(C)cccn2c1C(=O)NCc1ccc(N2CCC(c3ccc(Cl)cc3)CC2)cc1` [Compound 173], less than 1 µM.
In the case of `CCc1nc2ccc(C)cn2c1C(=O)NCc1ccc(N2CCC(c3ccc(OC(F)(F)F)cc3)CC2)cc1` [Compound 174] it was less than 1 µM; in that of `CCc1nc2c(F)cccn2c1C(=O)NCc1ccc(N2CCC(c3ccc(Cl)cc3)CC2)cc1` [Compound 176], less than 1 µM; in that of `CCc1nc2c(OC)cccn2c1C(=O)NCc1ccc(N2CCC(c3ccccc3)CC2)cc1` [Compound 177], less than 1 µM.
With `CCc1nc2ccc(C(F)(F)F)cn2c1C(=O)NCc1ccc(N2CCC(c3ccccc3)CC2)cc1` [Compound 178], the MIC80 was less than 1 µM.
For `CCc1nc2ccc(OC)cn2c1C(=O)NCc1ccc(N2CCC(c3ccc(F)cc3)CC2)cc1` [Compound 179], the MIC80 is less than 1 µM.
The figure for `CCc1nc2ccccn2c1C(=O)NCc1ccc(N2CCC(c3ccc(OC)cc3)CC2)cc1` [Compound 180] is less than 1 µM; for `CCc1nc2c(C)cccn2c1C(=O)NCc1ccc(N2CCC(c3ccc(OC(F)(F)F)cc3)CC2)cc1` [Compound 181] it is less than 1 µM.
As to `CCc1nc2ccc(OC)cn2c1C(=O)NCc1ccc(N2CCC(c3ccc(OC(F)(F)F)cc3)CC2)cc1` [Compound 182], the MIC80 is less than 1 µM.
In the case of `CCc1nc2c(Cl)cccn2c1C(=O)NCc1ccc(N2CCC(c3ccc(F)cc3)CC2)cc1` [Compound 183] it was less than 1 µM; in that of `CCc1nc2cc(OC)ccn2c1C(=O)NCc1ccc(N2CCC(c3ccc(OC(F)(F)F)cc3)CC2)cc1` [Compound 184], less than 1 µM.
In the case of `CCc1nc2c(Br)cccn2c1C(=O)NCc1ccc(N2CCC(c3ccc(OC(F)(F)F)cc3)CC2)cc1` [Compound 185] it was 1 to 20 µM (≈ 0.601 to 12 µg/mL).
The figure for `CCc1nc2cc(C(F)(F)F)ccn2c1C(=O)NCc1ccc(N2CCC(c3ccc(Cl)cc3)CC2)cc1` [Compound 186] is less than 1 µM.
In the case of `CCc1nc2ccc(Br)cn2c1C(=O)NCc1ccc(N2CCC(c3ccc(OC(F)(F)F)cc3)CC2)cc1` [Compound 187], the MIC80 is less than 1 µM.
In the case of `CCc1nc2ccc(C(F)(F)F)cn2c1C(=O)NCc1ccc(N2CCN(c3ccc(OC(F)(F)F)cc3)CC2)cc1` [Compound 188] it was less than 1 µM; in that of `CCc1nc2c(Br)cccn2c1C(=O)NCc1ccc(N2CCC(c3ccc(F)cc3)CC2)cc1` [Compound 189], 1 to 20 µM (≈ 0.535 to 10.7 µg/mL); in that of `CCc1nc2c(Cl)cccn2c1C(=O)NCc1ccc(N2CCC(c3ccccc3)CC2)cc1` [Compound 190], less than 1 µM.
In the case of `CCc1nc2cc(Br)ccn2c1C(=O)NCc1ccc(N2CCC(c3ccc(OC(F)(F)F)cc3)CC2)cc1` [Compound 191] it was less than 1 µM; in that of `CCc1nc2cc(Br)ccn2c1C(=O)NCc1ccc(N2CCN(c3ccc(OC(F)(F)F)cc3)CC2)cc1` [Compound 192], less than 1 µM.
In the case of `CCc1nc2c(F)cccn2c1C(=O)NCc1ccc(N2CCN(c3ccc(OC(F)(F)F)cc3)CC2)cc1` [Compound 193] it was less than 1 µM.
As to `CCc1nc2cc(Cl)ccn2c1C(=O)NCc1ccc(N2CCN(c3ccc(Cl)cc3)CC2)cc1` [Compound 194], the MIC80 is less than 1 µM.
Regarding `CCc1nc2cc(OC)ccn2c1C(=O)NCc1ccc(N2CCC(c3ccc(C(F)(F)F)cc3)CC2)cc1` [Compound 195], the MIC80 is less than 1 µM.
